Earlier results, collected in patent US20120183988A1, “INTEIN-BASED F[…]-CIRCUIT FOR VITAMIN D DETECTION” (priority 2009, published 2012).

Details: cited from reference 2 (Haddad and Stamp 1974)

SMILES: C=C1CC[C@H](O)C/C1=C/C=C1\CCC[C@]2(C)[C@@H]([C@H](C)CCCC(C)(C)O)CC[C@@H]12 [25(OH)D3, 25-hydroxyvitamin D3]
- serum half-life: ca. 3 weeks
